Experimental data from patent publication US9376424B2, “Methods for treating post traumatic stress disorder” (AZEVAN PHARMACEUTICALS, INC., priority 2010, dated 2016).
Where two headings read alike, the source gives them in different places.

How the values were obtained:
V1b receptor = molecular target: T1, V1b receptor (Homo sapiens, UniProt P47901); assay: Human or rat vasopressin V1b cell-based receptor binding assay; details: selectivity table; read-out: inhibition data (Ki, nM), Receptor V1b
T1 construct: expressed in transfected cells; host or cells: CHO-K1 (ATCC), vector PCI-neo
T1 sequence (P47901 1-424): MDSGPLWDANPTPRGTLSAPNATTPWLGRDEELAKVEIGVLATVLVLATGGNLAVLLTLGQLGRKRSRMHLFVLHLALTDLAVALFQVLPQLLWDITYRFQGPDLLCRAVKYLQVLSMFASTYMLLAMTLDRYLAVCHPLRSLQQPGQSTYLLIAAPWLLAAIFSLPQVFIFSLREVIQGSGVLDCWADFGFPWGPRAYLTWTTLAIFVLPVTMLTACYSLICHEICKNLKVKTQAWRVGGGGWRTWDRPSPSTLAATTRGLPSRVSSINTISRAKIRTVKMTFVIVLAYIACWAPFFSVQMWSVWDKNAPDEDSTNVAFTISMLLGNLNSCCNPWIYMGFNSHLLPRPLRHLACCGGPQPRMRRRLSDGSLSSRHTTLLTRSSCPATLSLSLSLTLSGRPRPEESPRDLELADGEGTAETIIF
Excerpt: Human vasopression V1b receptor-expressing cells. Human vasopressin receptor 1b (hV1b) cDNA (see, Lolait et al., “Extrapituitary expression of the rat V1b vasopressin receptor gene” Proc. Natl. Acad. Sci. USA. 92:6783-7 (1995); de Keyzer et al., “Cloning and characterization of the human V3(V1b) pituitary vasopressin receptor” FEBS Lett. 356:215-20 (1994); Sugimoto et al., “Molecular cloning and functional expression of a cDNA encoding the human V1b vasopressin receptor” J. Biol. Chem. 269:27088-92 (1994)) was inserted into a mammalian cell expression vector PCI-neo (Promega) at EcoR1 site. The recombinant plasmid carrying hV1b cDNA was identified from transformed E. Coli clones and used for the transfection of Chinese hamster ovary cell (CHO-K1, ATCC). Two micrograms of hV1b receptor DNA was introduced into 10^5 CHO cells cultured in 6-well plate, using Fugene-6 mediated transfection technique (Boehringer Mannheim). Twenty-four hrs post transfection, Cells were then cultured under selection of G-418 (0.25 mg/ml) supplemented to the culture medium. Three days later, limited dilution was carried out to obtain single cell clones in 96-well plates. […]
Human or rat vasopression V1b cell-based receptor binding assay. […] Samples were counted in a liquid scintillation counter (Beckman LS3801). IC50 and Ki values were calculated using Prism Curve fitting software. […]

human V1a receptor = molecular target: T2, human V1a receptor (Homo sapiens, UniProt P37288); assay: Human vasopressin V1a receptor binding assay (3H-AVP competition, hV1a cell line)
T2 construct: host or cells: CHO cells
T2 sequence (P37288 whole entry): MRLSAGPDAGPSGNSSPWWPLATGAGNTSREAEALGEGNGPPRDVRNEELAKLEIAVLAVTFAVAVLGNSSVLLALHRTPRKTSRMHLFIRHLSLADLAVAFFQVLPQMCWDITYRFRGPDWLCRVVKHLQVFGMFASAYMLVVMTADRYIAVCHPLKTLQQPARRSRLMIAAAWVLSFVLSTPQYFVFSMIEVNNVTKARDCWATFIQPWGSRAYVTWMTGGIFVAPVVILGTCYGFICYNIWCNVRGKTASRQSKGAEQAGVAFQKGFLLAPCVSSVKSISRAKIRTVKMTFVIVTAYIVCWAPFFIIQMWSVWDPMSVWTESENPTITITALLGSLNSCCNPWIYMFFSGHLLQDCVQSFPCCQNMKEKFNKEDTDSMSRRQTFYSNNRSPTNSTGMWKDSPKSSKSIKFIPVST
Procedure: Human vasopression V1a receptor binding assay. A cell line expressing the human V1a receptor in CHO cells (henceforth referred to as the hV1a cell line) was obtained from Dr. Michael Brownstein, NIMH, Bethesda, Md., USA. The hV1a cDNA sequence is described by Thibonnier et al., Journal of Biological Chemistry, 269, 3304-3310 (1994), and the expression method was the same as described by Morel et al. (1992). The hV1a cell line was grown in alpha-MEM with 10% fetal bovine serum and 250 ug/ml G418 (Gibco, Grand Island, N.Y., USA). For competitive binding assay, hV1a cells were plated into 6-well culture plate at 1:10 dilution from a confluency flask, and maintained in culture for at least two days. Culture medium was then removed, cells were washed with 2 ml binding buffer (25 mM Hepes, 0.25% BSA, 1×DMEM, PH=7.0). To each well, 990 μl binding buffer containing 1 nM 3H-AVP was added, and followed by 10 μl series diluted Example compounds dissolved in DMSO. […] 100 nM cold AVP (Sigma) was used to assess non-specific binding. Cells were incubated for 45 minutes at 37° C., assay mixture was removed and each well was washed three times with PBS (pH=7.4). 1 ml 2% SDS was added per well and plates were let sit for 30 minutes. The whole content in a well was transferred to a scintillation vial. Each well was rinsed with 0.5 ml PBS which was then added to the corresponding vial. Scintillation fluid (Ecoscint, National Diagnostics, Atlanta, Ga.) was then added at 3 ml per vial. Samples were counted in a liquid scintillation counter (Beckman LS3801). IC50 values were calculated by Prism Curve fitting software.
All of the alkanedioic esters and amides exemplified in the foregoing examples dissolved in DMSO were tested in this assay. Binding curves were generated according to methods described by Thibonnier et al. (1994). [^3H]-AVP was added to the hV1a cell cultures followed by 10-fold dilutions of each test compound.

CN(Cc1cccc(C(F)(F)F)c1)C(=O)[C@@H](CC(=O)N1CCC(N2CCCCC2)CC1)N1C(=O)[C@@H](N2C(=O)OC[C@@H]2c2ccccc2)[C@H]1C=Cc1ccccc1 [Example 225, 2(R)-[[4-(Piperidinyl)piperidinyl]carbonylmethyl]-2-[3(S)-(4(S)-phenyloxazolidin-2-on-3-yl)-4(R)-(2-styryl)azetidin-2-on-1-yl]acetic acid N-methyl-N-(3-trifluoromethylbenzyl)amide]
Ki (V1b receptor): > 1000 nM | IC50 (human V1a receptor; CHO cells expressing human V1a, 1 nM 3H-AVP, read-out: V1a Binding Affinity IC50): 1.08 nM | Ki (human V1a receptor; CHO cells expressing human V1a, 1 nM 3H-AVP, read-out: V1a Ki): 0.66 nM | IC50 (human V1a receptor; read-out: IC50, dose-dependent competitive binding curve, hV1a cell line, [3H]-AVP): 1.86 to 2.13 nM | Ki (human V1a receptor; read-out: Ki, dose-dependent competitive binding curve, hV1a cell line, [3H]-AVP): 1.14 to 1.3 nM | Ki (human V1a receptor; selectivity table, read-out: inhibition data (Ki, nM), Receptor V1a): 0.66 nM
